The MIC is the lowest concentration that inhibits growth of the organism.

Square brackets hold non-standard residues; d marks the D form. Peptide text beside a SMILES is read from it. * marks the point of attachment. 2Abz = Nc1ccccc1C(=O)O; Bz = O=C(c1ccccc1)*

One series concerns S. aureus. Particulars: cited from earlier work. The method, then: With a complete understanding of the hydrogel ultrastructure now in-hand, the antibacterial activity of N-acetyl 1, N-benzoyl 2 and N-naphthoyl 3 was assessed, in order to evaluate the effect of increased hydrophobicity on antibacterial activity. Further, the stiffest (BA 9) and softest (methyl 6) of the remaining gelators were tested to discern the relationship of hydrogel stiffness to antimicrobial activity. Staphylococcus aureus, the most common causative organism for skin and soft tissue infections, was chosen as the bacterial strain to assess the hydrogels antibacterial activity. Thes ...

Experiment in series [1]: not given
The source holds these as a separate data set.

The next series relates to HEK293T cells. Put plainly: Contact cytotoxicity of hydrogels, Alamar Blue colorimetric assay. It is filed as cell-based. To be noted: hydrogels at 0.25, 0.5 and 1% (w/v), cells seeded on hydrogel, 24 h, repeated at least three times. The method, then: With this in mind, the cytotoxicity of lead candidates N-benzoyl 2, N-naphthoyl 3, and BA 9 (para) from the antibacterial studies were examined against HEK293T cells, as a robust mammalian cell model. As the antibacterial activity of the 2, 3 and 9 was evaluated in the gel phase, contact cytotoxicity of hydrogels at concentrations of 0.25, 0.5, and 1% (w/v) was examined.
Similar to previously reported method, cytotoxicity measurement was performed using an Alamar Blue colorimetric assay on HEK293T cells. HEK293T cells were passaged using standard cell culture procedures. Cells were detached with trypsin and centrifuged (1000 rpm for 3 min). After supernatant was removed, the cells were re-suspended in Dulbecco’s Modified Eagle Medium (DMEM) at a concentration of 60,000 cells/mL. Cells were seeded onto hydrogels at a concentration of 6,000 cells/well. Hydrogels were prepared as described above and 100 µL cast into the wells of a 96 well plate in triplicate. After incubating overnight, 100 µL media was added to the set hydrogels and incubated overnight. The following day, excess media was aspirated and cells seeded atop the hydrogels as above. After incubation for 24 hours, 10 µL Alamar Blue was added to each well, followed by further incubation for another 4 hours. […] BioRad Benchmark plate reader was used to measure the absorbance at 570 nm and 596 nm. […]
For orientation: Alamar Blue is a resazurin reagent that responds to reducing activity.

Series [2] can be described thus: Temperature dependent CD spectroscopy (thermal denaturation). The series is classed as physicochemical. To be noted: temperature increased from 25 °C to 60 °C; diluted hydrogel. The method, then:
In addition, CD spectroscopy was also used as a tool to investigate gradual thermal denaturation of anthranilamide-based short peptides.
The anthranilamide-based hydrogels were prepared at 0.8% (w/v) and were diluted 10 times before being transferred into a 0.5 mm path length cuvette. Meanwhile, for the concentration dependence, the hydrogel made from N-benzoyl 2 at 0.8% (w/v) was diluted to make up concentrations ranging from 0.058 mM – 0.470 mM before being transferred into a 0.5 mm path length cuvette.
CD spectrum were obtained using a ChirascanPlus CD spectrometer (Applied Photophysics, UK) scanning wavelengths of 180–500 nm with a bandwidth of 1 nm, 0.6 s per point, and step of 1 nm[22]. The outcome of three experiments were then averaged and plotted into a single plot value. The high tension (HT) value of each experiment was maintained to be below 600 mV (Fig. S17).

Series [3] in a line: Hydrogel formation, critical gel concentration and gelation time by vial inversion test. It is filed as physicochemical. An excerpt:
Several triggers such as physical stimuli, pH switch, solvent switch, or a combination of these, were employed to assess the self-assembly of compounds 1–11 in water. Initially, hydrogel formation of compounds 1–11, at 1% (w/v), was investigated using a combination of pH switch and temperature switch. The compounds were heated in dilute sodium hydroxide (NaOH) in order to deprotonate the carboxylic acid group at the C-terminus of the short peptides.
Compared to a mineral acid, GdL promotes the formation of a homogenous hydrogel due to its slow hydrolysis and fast dissolution rate in water[39],[40].
In addition, the effect of salt which can induce gelation in basic peptide solutions[41], due to high ionic was also investigated for peptides 1–11.
In a final attempt to induce gelation in peptides 4, 7 and 11, a solvent switch method using dimethyl sulfoxide (DMSO), methanol, or ethanol as co-solvent was employed[42]–[47]. […] Given that these hydrogels were designed with antibacterial applications in mind, due to the potential toxicity concerns arising from the use of organic co-solvents, further characterisation of peptides 4, 7 and 11 was not carried out.
The critical gel concentration (CGC) represents the minimum amount of the anthranilamide-based short peptide required to form a hydrogel. The CGC of anthranilamide-based short peptides were qualitatively assessed by varying the short peptide concentrations and conducting vial inversion test[48]–[50]. […] Here, gelation time represents the time required for these short peptides, at 1% (w/v), to form self-supporting hydrogels as assessed through the vial inversion test.
To a pre-weighed compound in a glass vial, 1 M NaOH (2–8 molar equiv.) was added followed by addition of Mili-Q water. The suspension was then heated and vortexed vigorously for 15 minutes to completely dissolve the compound. In the case of N-acetyl 1, N-benzoyl 2, N-naphthoyl 3, fluoro 5 and methyl 6, these clear solutions were left to cool to room temperature for 1–30 minutes. GdL (2–3 equiv.) was added to a solution of compounds 7–11 in NaOH. […]

On to `CC(=O)Nc1ccccc1C(=O)N[C@@H](Cc1ccccc1)C(=O)N[C@@H](Cc1ccccc1)C(=O)O` (Ac-[2Abz]-Phe-Phe-OH), for which the amide I peak (disordered coil) turned out to be 1650 cm⁻¹.

For the molecule `[Na+].[OH-]` [NaOH, sodium hydroxide], the MIC in the series with S. aureus is 7500 µg/mL.

With `O=C(Nc1ccccc1C(=O)N[C@@H](Cc1ccccc1)C(=O)N[C@@H](Cc1ccccc1)C(=O)O)c1ccc2ccccc2c1` [compound 3], the Gʹ (stiffness) in series [1] was 5.7 kPa. For the same molecule, the “Cytotoxicity towards HEK cells” value in the series on HEK293T cells is recorded as “poor cell viability”.

In the case of `O=C(Nc1ccccc1C(=O)N[C@@H](Cc1ccccc1)C(=O)N[C@@H](Cc1ccccc1)C(=O)O)c1ccccc1` [compound 2] ({Bz-2Abz}-Phe-Phe-OH), in series [1], the Gʹ (stiffness) stood at 16.9 kPa. Besides, the “Cytotoxicity towards HEK cells” value with HEK293T cells was “moderate cytotoxicity”. Also, the “Thermal stability of ß-sheet secondary structure (CD)” value in series [2] was “no significant conformational changes”.

Take `O=C(N[C@@H](Cc1ccccc1)C(=O)N[C@@H](Cc1ccccc1)C(=O)O)c1ccccc1NS(=O)(=O)c1cccc2ccccc12` [compound 4]: the Hydrogel formation outcome in series [3] (1% (w/v), heated in dilute NaOH, cooled to room temperature (pH switch and temperature switch), up to 48 hours) was “remained as clear solutions”; in series [3] (3 equivalents of GdL added to basic solution), “white precipitate”; in series [3] (solvent switch, DMSO: water at 1% w/v), “gels were observed only for the first 5 minutes”.

(Values after PMC6972728, “Anthranilamide-based Short Peptides Self-Assembled Hydrogels as Antibacterial Agents” (Scientific Reports, 2020).)
